{
  "source": "paper PMC4171606",
  "about": "“A novel copper(I) complex induces ER-stress-mediated apoptosis and sensitizes B-acute lymphoblastic leukemia cells to chemotherapeutic agents” (Oncotarget, 2014)",
  "type_in_all_cases": "cell-based, human",
  "key": {"[1]": {"test_system": "Bone marrow cells from healthy donors", "test": "Annexin-V-FITC/PI viability by flow cytometry, 24 h", "conditions": "CP 2.5 μM and 5 μM", "description": "CP growth inhibitory activity was measured on primary cultures derived from pediatric patients affected by B-acute lymphoblastic leukemia. […] In particular, in resting and in PHA-stimulated PBMC, and in CD19^+ cells GI50 was higher than 10 μM confirming that CP preferentially affects leukemia cells.\nFIGURE 6 CP effects on B-ALL primary cultures (A) Blast cells from six B-ALL patients were incubated for 24 h with different concentrations of CP. For the sake of comparison CD19^+ cells from peripheral blood of healthy donors, and PBMC were also incubated with CP in the presence or absence of PHA. Cell viability were assayed by MTT analysis. Data are represented as mean ± S.E.M of four independent experiments. (B) Bone marrow cells from healthy donors were treated for 24 h with CP (2.5 μM and 5 μM). Cell viability was evaluated on the whole population by flow cytometry after staining the cells with Annexin-V-FITC and PI. are represented as mean ± S.E.M of 3 independent experiments. […]\nSurface exposure of PS by apoptotic cells was measured by flow cytometry with a Coulter Cytomics FC500 (Beckmann Coulter, USA) by adding Annexin V-FITC and propidium iodide (PI) to cells according to the manufacturer's instructions (Annexin-V Fluos, Roche Diagnostic, Italy)."}, "[2]": {"test_system": "SEM and RS4;11 cells", "test": "Annexin-V-FITC/PI flow cytometry (apoptosis)", "conditions": "CP 2.5 μM, both cell lines", "description": "FIGURE 1 CP uptake and effects on cell cycle and apoptosis induction A) RS4;11, SEM, THP1, Jurkat cell lines and healthy PBMC were incubated with 6.25, 12.5 and 25 μM of CP for 24 h. The intracellular accumulation of CP was detected by GF-AAS analysis. B) SEM and RS4;11 cells were treated with the indicated concentrations of CP for 24 h, cell cycle distribution and Sub-G1 contents were analyzed by flow cytometry after cell staining with PI. The percentages of each phase of the cell cycle (G1, S, G2/M) were calculated on living cells whereas the percentages of cells with hypodiploid DNA content peak (subG1) was referred to cell population characterized by the appearance of subG1 peak. C) SEM and RS4;11 cells were incubated with 2.5 μM CP for the indicated times and analyzed by flow cytometry after double staining with Annexin-V-FITC and PI. Data are represented as mean ± S.E.M. of three independent experiments.\nTo characterize the mode of cell death induced by CP, we performed a cytofluorimetric analysis using PI and Annexin-V-FITC, which stain DNA and phosphatidylserine residues, respectively. After a time course of 1.5, 3, 6, 12 and 24 h of drug treatment (2.5 μM), SEM and RS4;11 cells were labeled with the two dyes and analyzed by flow cytometry. […]"}, "[3]": {"test_system": "caspase-12", "test": "Western blot, cleaved caspase-12", "description": "FIGURE 2 CP induces caspase-dependent apoptosis without mitochondria involvement (A) Assessment of mitochondrial membrane potential (ΔΨmt) after treatment of RS4;11 and SEM cells with CP (2.5 μM) for the indicated times. Cells were stained with the fluorescent probe JC-1. Data are represented as mean ± S.E.M. of three independent experiments. (B) Flow cytometric analysis of RS4;11 and SEM cells treated with CP (2.5 μM) for 24 h showing cytochrome c labeled with a monoclonal antibody conjugated to FITC. Representative image of three experiments with similar results. (C) Cells were incubated with CP 2.5 μM and 5 μM in the presence or absence of the pan-caspase inhibitor z-VAD.fmk (100 μM). Cell viability was determined after 48 h by MTT assay. Data are represented as mean ± S.E.M. of three independent experiments performed in triplicate. *p<0.01 vs CP alone. (D) Western blot analysis of Bcl-2, cleaved caspase-12, caspase-9, cleaved caspase-7, caspase-3 and PARP after treatment of SEM and RS4;11 cells with CP (2.5 μM) for the indicated times. To confirm equal protein loading, each membrane was stripped and reprobed with anti-β-actin antibody. […]\nCells were treated with CP and, after different times, were collected, centrifuged and washed with ice cold phosphate-buffered saline (PBS). […] The protein concentration in the supernatant was determined using the BCA protein assay (Pierce, Italy). […]"}, "[4]": {"test_system": "CHOP", "test": "Western blot, ER stress marker CHOP", "conditions": "SEM and RS4;11, CP 2.5 μM", "description": "Moreover we found an increase in CHOP expression starting from 3 h of CP treatment. […] Whilst GRP78, due to its chaperon activity, exerts a protective function, CHOP promotes ER-stress cell death, thus the rapid activation of pro-death signals and the late activation of pro-survival chaperone GRP78 could explain the commitment toward apoptosis induced by CP. Moreover, in unresolvable stress conditions, an increased CHOP expression has been correlated to the induction of the expression of many apoptotic genes and to the down-regulation prosurvival genes, such as Bcl-2 [30].\nFIGURE 4 CP induces ER stress Western Blot analysis showing expression of GRP78 and CHOP in SEM (A) and in RS4;11 (B) cells. Cells were treated with CP 2.5 μM for the indicated times. (C) PCR analysis showing the induction of XBP1 splicing in SEM and RS4;11 cells. Cells were treated with CP (2.5 μM) or Tunicamycin (2 μg/ml) as positive control for 12 h.\nCells were treated with CP and, after different times, were collected, centrifuged and washed with ice cold phosphate-buffered saline (PBS). The pellet was then resuspended in lysis buffer as described. The protein concentration in the supernatant was determined using the BCA protein assay (Pierce, Italy). […]"}},
  "data": [
    {"smiles": "F[P-](F)(F)(F)(F)F.OCP(CO)CO.OCP(CO)CO.OCP(CO)CO.OCP(CO)CO.[Cu+]", "note": "[CP, [Cu(thp)4][PF6]]", "values": [
      {"measurement": "viability of lymphocyte and monocyte populations", "setting": "[1]", "value": "did not affect the viability"},
      {"measurement": "onset of significant levels of Annexin-V positive cells", "setting": "[2]", "value": "≥ 6", "unit": "h"},
      {"measurement": "onset of caspase-12 activation", "setting": "[3]; RS4;11, CP 2.5 μM", "value": "≥ 1.5", "unit": "h"},
      {"measurement": "onset of caspase-12 activation", "setting": "[3]; SEM, CP 2.5 μM", "value": "≥ 3", "unit": "h"},
      {"measurement": "onset of increase in CHOP expression", "setting": "[4]", "value": "≥ 3", "unit": "h"}
    ]}
  ]
}
